These results are taken from US10124012B2, “Method for treatment of hyperglycemia and hyperlipidemia” (priority 2016, dated 2018).

Test [1] concerns membrane GLUT4. The test can be described thus: Membrane GLUT4 expression in C2C12 cells (Western blotting). It is filed as cell-based. As to conditions: AnK 1, 5, 10 and 25 μg/mL 30 min, insulin 100 nM 25 min, vs CON group. As for the experimental part: (§1) For the in vitro assay, C2C12 skeletal myoblasts (ATCC CRL-1772) were cultured at 37° C. in Dulbecco's modified Eagle's medium (DMEM; Gibco BRL) supplemented with 10% fetal bovine serum (FBS; Hyclone) and 100 U/ml penicillin and 100 μg/ml streptomycin (Gibco BRL), and split 1:4 using 0.05% trypsin at 80% confluency. Myoblasts were diluted and placed in a 9 cm dish. Cells were cultured to achieve 80-90% confluency and refreshed with […] (2% FBS/DMEM) every 24 hours for 5-7 days. The term “confluency” refers to the proportion of the surface of a culture dish that is covered by adherent cells growing in the dish. 100% confluency refers to complete coverage of the surface by the cells.
(§2) Differentiated C2C12 cells were serum-starved in DMEM/BSA at 37° C. for 2 hours prior to incubation with AnK (at 1, 5, 10, and 25 μg/mL) or vehicle (0.2% dimethyl sulfoxide (DMSO) in saline) for 30 min or with 100 nM insulin for 25 min.
The C2C12 cells of the other group were homogenized in a homogenization buffer having a pH value of about 7.4 and containing 250 mM sucrose, 50 mM Tris, and 0.2 mM edetic acid (EDTA). […]
(§3) Protein concentrations were determined via BCA assay (Pierce). […]
(§4) SDS polyacrylamide gel electrophoresis (SDS-PAGE) and Western blotting. Proteins were detected with antibodies specific for GLUT4, Akt, phospho-Akt (Ser^473), AMPK, and phospho-AMPK (Thr^172).
In general terms: Immunoblotting shows a protein as a band on a membrane.

Test [2] has as its system phospho-AMPK (Thr^172)/total-AMPK. The test can be described thus: AMPK phosphorylation in C2C12 cells (Western blotting). The test is classed as cell-based. The following applies: AnK 1, 5, 10 and 25 μg/mL 30 min, insulin 100 nM 25 min, vs CON group. How it is done:
as §1, §2
(§5) The abovementioned C2C12 cells were then washed three times with phosphate buffered saline (PBS) and divided into two groups. […]
as §3, §4

For test [3], the system named is phospho-Akt (Ser^473)/total-Akt. The test can be described thus: Akt phosphorylation in C2C12 cells (Western blotting). It is filed as cell-based. The following applies: AnK 1, 5, 10 and 25 μg/mL 30 min, insulin 100 nM 25 min, vs CON group. As for the experimental part: as §1, §2, §5, §3, §4
The subject of test [4] is high-fat diet-fed C57BL/6J mouse. As to the kind of experiment: Hepatic lipids in HFD-fed mice. The test is classed as in vivo, C57BL/6J mice. As to conditions: HF + Feno: fenofibrate 250 mg/kg/day oral gavage 4 weeks. As for the experimental part: Animal studies were performed and approved under the guidelines of the Institutional Animal Care and Use Committee in Taiwan (12 Mar. 2015). […] After acclimatization for one week, all of the mice were randomly assigned into a control (CON) group and a high-fat diet (HFD) group. For the following 12 weeks, the CON group (n=9) received a control diet or a low-fat diet (Diet 12450B, Research Diets, Inc., New Brunswick, N.J., USA), while the HFD group (n=54) received a high-fat diet (Diet 12451, Research Diets, New Brunswick, N.J., USA). […] After HFD feeding for 8 weeks, the HFD group was randomly subdivided into six groups (n=9 per group) receiving different treatments and fed on HFD. […] The HF+AnK1, HF+AnK2, and HF+AnK3 groups are collectively termed AnK-treated HFD groups in the following examples. The CON mice were administered vehicle. All treatments were administered via oral gavage once daily. After administration for 4 weeks, all mice were fasted 12 hours, and blood was collected from the retro-orbital sinus under ether anesthesia. At the end of the experiment, the mice were sacrificed via carbon dioxide inhalation. Liver, adipose tissue, and skeletal muscle were collected and immediately stored at −80° C. for target gene analysis.

Test [5] shares this test system. The test can be described thus: Body weight, tissue weights and food intake in HFD-fed mice. As to conditions: HF + Feno: fenofibrate 250 mg/kg/day oral gavage 4 weeks. It is filed as in vivo, C57BL/6J mice. The source says: (§6) The 4-week old male C57BL/6J mice (total amount n=63) were obtained from the National Laboratory Animal Center (Taipei, Taiwan). After acclimatization for one week, all of the mice were randomly assigned into a control (CON) group and a high-fat diet (HFD) group. […] After HFD feeding for 8 weeks, the HFD group was randomly subdivided into six groups (n=9 per group) receiving different treatments and fed on HFD. […] The HF+AnK1, HF+AnK2, and HF+AnK3 groups are collectively termed AnK-treated HFD groups in the following examples. The CON mice were administered vehicle. All treatments were administered via oral gavage once daily. After administration for 4 weeks, all mice were fasted 12 hours, and blood was collected from the retro-orbital sinus under ether anesthesia. At the end of the experiment, the mice were sacrificed via carbon dioxide inhalation. Liver, adipose tissue, and skeletal muscle were collected and immediately stored at −80° C. for target gene analysis.
The metabolic parameters, including body weight, weight gain, and food intake, were performed as the following. Body weight was daily measured at the same time throughout the study. Body weight gain is considered as the weight difference between two consecutive days. The amount of pellet food was weighted, followed by weighting the amount of remaining food after 24 hours. The difference between the two weights is defined as daily food intake.

Test [6] shares this test system. The test can be described thus: Histopathology of epididymal white adipose tissue (adipocyte hypertrophy). The test is classed as in vivo, C57BL/6J mice. The following applies: mean area of epididymal adipocyte; HF + Feno: fenofibrate 250 mg/kg/day oral gavage 4 weeks, HFD-fed mice. As for the experimental part:
(§7) Animal studies were performed and approved under the guidelines of the Institutional Animal Care and Use Committee in Taiwan (12 Mar. 2015). The 4-week old male C57BL/6J mice (total amount n=63) were obtained from the National Laboratory Animal Center (Taipei, Taiwan). After acclimatization for one week, all of the mice were randomly assigned into a control (CON) group and a high-fat diet (HFD) group. For the following 12 weeks, the CON group (n=9) received a control diet or a low-fat diet (Diet 12450B, Research Diets, Inc., New Brunswick, N.J., USA), while the HFD group (n=54) received a high-fat diet (Diet 12451, Research Diets, New Brunswick, N.J., USA). The low-fat diet was composed of protein 20%, carbohydrate 70% and fat 10%, whereas the high-fat diet was composed of protein 20%, carbohydrate 35%, and fat 45% (of total energy, % kcal). After HFD feeding for 8 weeks, the HFD group was randomly subdivided into six groups (n=9 per group) receiving different treatments and fed on HFD. […] The HF+AnK1, HF+AnK2, and HF+AnK3 groups are collectively termed AnK-treated HFD groups in the following examples. The CON mice were administered vehicle. All treatments were administered via oral gavage once daily. After administration for 4 weeks, all mice were fasted 12 hours, and blood was collected from the retro-orbital sinus under ether anesthesia. At the end of the experiment, the mice were sacrificed via carbon dioxide inhalation. Liver, adipose tissue, and skeletal muscle were collected and immediately stored at −80° C. for target gene analysis.
(§8) Parts of visceral adipose and liver specimens were fixed with formalin (200 g/kg) neutral buffered solution and embedded in paraffin. A series of 8 μm-thick sections was cut and stained with hematoxylin and eosin. For microscopic examination, a microscope (Olympus BX51, Olympus, Tokyo, Japan) was used and the images were photographed.
Adipocyte hypertrophy, the pathological enlargement of adipocytes, is often found in subjects with type 2 diabetes and hyperlipidemia. To verify the therapeutic effect of AnK on adipocyte hypertrophy, morphology of the epididymal white adipose tissue from mice of the HF group and the AnK-treated HFD groups was examined. Micrographs (magnification 200X) of the EWAT sections for each group were shown in FIG. 4 and analyzed to determine the mean area of an epididymal adipocyte.

For test [7], the system named is membrane GLUT4. The test can be described thus: Western blotting of skeletal muscular membrane GLUT4 in HFD-fed mice. It is filed as in vivo, C57BL/6J mice. As to conditions: skeletal muscle, AnK 10, 20, 40, Feno 250, Metf 300 mg/kg/day, as compared with the HF group.
From the text: as §6
About 0.1 g of liver tissue, skeletal muscle, or adipose tissue was used for the homogenate samples. Samples were powdered under liquid nitrogen and homogenized for 20 seconds in 500 μL buffer containing 20 mM Tris-HCl (pH 7.4 at 4° C.), 2% SDS, 5 mM EDTA, 5 mM EGTA, 1 mM dithiothreitol (DTT), 100 mM NaF, 2 mM sodium vanadate, 0.5 mM phenylmethylsulfonyl fluoride, 10 μg/mL leupeptin, and 10 μL/mL pepstatin. The total membrane fraction was used for measurement. The protein concentration in supernatant was determined with a BCA protein assay kit (Thermo Scientific, Rockford, Ill., USA). […] The membrane was blocked with 5% slim milk in Tris-buffered saline (TBS)(Amersham BioSciences, Uppsala, Sweden) containing 0.05% Tween-20 (Bio Rad, CA, USA) and incubated overnight at 4° C. with antibodies at 1:200 dilution. […] Immunoreactive bands were detected with ECL reagent kit (GE Healthcare BioSciences, Buckinghamshire, UK). The intensity of Western blot signals was analyzed using AlphaEase FC software (Alpha Innotech Corporation, Randburg, South Africa). […]

The test system of test [8] is high-fat diet-fed C57BL/6J mouse. The test can be described thus: Histopathology of liver (hepatocellular ballooning). It is filed as in vivo, C57BL/6J mice. As to conditions: grade 0 absence, 1 few cells, 2 many cells (Table 4); HF + Feno: fenofibrate 250 mg/kg/day oral gavage 4 weeks, HFD-fed mice. As for the experimental part:
as §7, §8
On the basis of previous study, the degree of hepatocellular ballooning is defined in TABLE 4: […]

insulin [reference compound]: the “protein expression of membrane GLUT4” value with membrane GLUT4 [1] is “enhanced”. The “expression ratio of phospho-AMPK (p-AMPK) to total-AMPK (t-AMPK)” value in test [2] is listed as “higher”. Besides, the “expression ratio of phospho-Akt (p-Akt) to total-Akt (t-Akt)” value in test [3] is reported as “higher”.
With `CC(C)OC(=O)C(C)(C)Oc1ccc(C(=O)c2ccc(Cl)cc2)cc1` [Feno, fenofibrate, reference compound], in test [4], the “Liver lipids total lipid” value stood at 64.9 ± 5.1 mg/g and the Liver lipids triacylglycerol worked out at 47.3 ± 4.6 µmol/g. In addition, in test [5], the “Absolute tissue weight BAT” value is listed as 0.157 ± 0.013 g, the “Absolute tissue weight EWAT” value was 0.603 ± 0.041 g, the “Absolute tissue weight Liver” value turned out to be 1.700 ± 0.070 g and the “Absolute tissue weight MWAT” value was 0.247 ± 0.025 g. In test [5], the “Absolute tissue weight RWAT” value stood at 0.181 ± 0.020 g, the “Absolute tissue weight Skeletal muscle” value was 0.428 ± 0.026 g, the “Absolute tissue weight Spleen” value was 0.084 ± 0.005 g and the Final body weight was 27.55 ± 0.84 g. Moreover, the Weight gain in test [5] was found to be 0.57 ± 0.55 g. In test [5] (sum of EWAT and RWAT), the “Absolute tissue weight Visceral fat” value came to 0.784 ± 0.052 g. Further, the Adipocyte size in test [6] was found to be 6304.2 ± 316.9 μm^2. The “increase of membrane GLUT4 levels” value in the test on membrane GLUT4 [7] stood at 1.98 fold. For the same molecule, in test [8], the “Hepatocellular ballooning Mean score” value worked out at 0.5 ± 0.1.
